Consider one compound from paper PMC3834941, “Pharmacokinetic Evaluation of a DSPE-PEG2000 Micellar Formulation of Ridaforolimus in Rat” (Pharmaceutics, 2012).

In general, half-life refers to the time needed for the level to fall by half in the phase considered.

Details of data set [1]: method as in PMID 19228743. Conditions: humans, clinical Phase I trials; cited from earlier work.
Data set [2] is described as follows: In vitro release by dialysis into PBS pH 7.4, 37 °C. The class given is physicochemical. As to conditions: free drug. The protocol: The in vitro release of the drug from DSPE-PEG2000 micelles into PBS (pH 7.4) was done by a dialysis method. Dialysis was carried out at 37 °C under sink condition using a 10-kDa MWCO dialysis tubing (SnakeSkin®, Thermo Scientific Inc., Rockford, IL, USA). The initial volume of drug-loaded micelles in the dialysis tubing was 2 mL and the sink solution was 4 L. The PBS was changed several times per day to maintain sink conditions. After pre-determined time intervals, samples were withdrawn from the dialysis bag and analyzed by a reversed phase HPLC column (TSK-GEL® ODS-100Z, Tosoh Bioscience) at 50 °C with UV detection at 290 nm.

Regarding `CO[C@H]1C[C@@H]2CC[C@@H](C)[C@@](O)(O2)C(=O)C(=O)N2CCCC[C@H]2C(=O)O[C@H]([C@H](C)C[C@@H]2CC[C@@H](OP(C)(C)=O)[C@H](OC)C2)CC(=O)[C@H](C)/C=C(\C)[C@@H](O)[C@@H](OC)C(=O)[C@H](C)C[C@H](C)/C=C/C=C/C=C/1C` [Ridaforolimus, ridaforolimus], the half-life in data set [1] was 45 to 52 h. For the same compound, in data set [2], the “in vitro release t50%” value was “less than 20 min” and the “in vitro release t90%” value is on record as 1 h.
